Earlier results in PMC2796837 (Journal of biological inorganic chemistry : JBIC : a …, 2008).
Where two headings read alike, the source gives them in different places. Each block holds one compound with its values, some of them ahead of it.

Tests used:
[1] = I = 1.0 M KCl, 25°C
[2] = I = 1.0 M KCl, 25°C; remark: listed apart in the source
[3] = I = 1.0 M KCl, 25°C; remark: listed apart in the source
[4] = I = 1.0 M KCl, 25°C; remark: listed apart in the source
[5] = I = 1.0 M KCl, 25°C; remark: listed apart in the source
[6] = I = 1.0 M KCl, 25°C; remark: listed apart in the source
[7] = Ce^3+ complex
[8] = I = 1.0 M KCl, 25°C; remark: listed apart in the source
[9] = I = 1.0 M KCl, 25°C; remark: listed apart in the source
[10] = I = 1.0 M KCl, 25°C; remark: listed apart in the source
[11] = I = 1.0 M KCl, 25°C; remark: listed apart in the source
[12] = I = 1.0 M KCl, 25°C; remark: listed apart in the source
[13] = I = 1.0 M and 25 °C

log K1^H [13]: 4.83
Compound: CN1CCNCC1 [N-methylpiperazine]

log K1^H [13]: 6.04
Compound: C1CNCCN1 [piperazine]

The remaining lines, values behind:

Compound: O=C(O)CN1CCN(CC(=O)O)CCN(CC(=O)O)CCN(CC(=O)O)CC1 [DOTA]
log KML, Eu^3+ [1]: 23.5 | log KML, Nd^3+ [2]: 23.0 | log K1^H [3]: 12.60 | log K2^H [3]: 9.70 | log K3^H [3]: 4.50 | log K4^H [3]: 4.14 | log K5^H [3]: 2.32 | log KML, Lu^3+ [4]: 25.4 | log KML, Dy^3+ [5]: 24.8 | log KCuL [6]: 22.72 | k1 (proton assisted dissociation rate constant) [7]: 0.0008 M⁻¹ s⁻¹ | log KMgL [8]: 11.15 | log KCaL [9]: 16.37 | log KML, Yb^3+ [10]: 25.0 | log KML, Ce^3+ [11]: 23.4 | log KZnL [12]: 18.17

Compound: O=C([O-])CN1CCN(CC(=O)[O-])CCN(C(CO)C(O)CO)CCN(CC(=O)[O-])CC1.[Gd+3] (centres unmarked) [GdDO3A-butrol]
LD50: 23 mmolkg^−1

Compound: CC(O)CN1CCN(CC(=O)[O-])CCN(CC(=O)[O-])CCN(CC(=O)[O-])CC1.[Gd+3] (centres unmarked) [GdHP-DO3A]
LD50: 12 mmolkg^−1
